Converted amounts (≈) assume the structure as drawn.
Key:
[1] = Increase of PGRN level in mouse microglial BV-2 cell relative to control; format: functional
[2] = Clearance in rat; format: ADME; conditions: in vivo
[3] = Oral bioavailability in rat; format: ADME, organism-based; conditions: in vivo, dose 10 mg/kg
[4] = Half life in iv dosed mouse; format: ADME, organism-based; conditions: in vivo
[5] = Unbound partition coefficient of the compound in rat incubated for 8 hrs; format: ADME; conditions: brain, read-out: K(p,uu,brain)
[6] = Protein binding in mouse brain assessed as unbound fraction; format: ADME, tissue-based
[7] = Half life in cynomolgus monkey hepatocytes; format: ADME, cell-based, Macaca fascicularis, Hepatocyte
[8] = Clearance in mouse; format: ADME, organism-based; conditions: in vivo
[9] = Volume of distribution at steady state in mouse; format: ADME, organism-based; conditions: in vivo, read-out: Vdss
[10] = Half life in po dosed rat; format: ADME, organism-based; conditions: in vivo
[11] = Volume of distribution at steady state in rat; format: ADME; conditions: in vivo, read-out: Vdss
[12] = target: Muscarinic acetylcholine receptor M3 (Homo sapiens, UniProt P20309); experiment: Antagonist activity at muscarinic M3 receptor (unknown origin)
[13] = Aqueous solubility of compound in pH 7.4 PBS measured; format: physicochemical
[14] = Protein binding in mouse assessed as unbound fraction; format: ADME
[15] = Half life in human hepatocytes; format: ADME, cell-based, Hepatocyte
[16] = Half life in rat hepatocytes; format: ADME, cell-based, Hepatocyte
[17] = Oral bioavailability in mouse; format: ADME, organism-based; conditions: in vivo, dose 10 mg/kg
[18] = Intrinsic clearance in cynomolgus monkey hepatocytes; format: ADME, cell-based, Macaca fascicularis, Hepatocyte
[19] = Half life in iv dosed rat; format: ADME, organism-based; conditions: in vivo
[20] = Cmax in rat; format: ADME; conditions: in vivo
[21] = Protein binding in rat assessed as unbound fraction; format: ADME
[22] = Protein binding in rat brain assessed as unbound fraction; format: ADME, tissue-based
[23] = Apparent permeability from apical to basolateral side in dog MDCK-MDR1 cells; format: ADME, cell-based, Canis lupus familiaris
[24] = Half life in po dosed mouse; format: ADME, organism-based; conditions: in vivo
[25] = Intrinsic clearance in human hepatocytes; format: ADME, cell-based, Hepatocyte
[26] = Cmax in mouse; format: ADME, organism-based; conditions: in vivo
[27] = Unbound partition coefficient of the compound in mouse incubated for 8 hrs; format: ADME; conditions: brain, read-out: K(p,uu,brain)
[28] = Protein binding in human assessed as unbound fraction; format: ADME
[29] = Half life in iv dosed cynomolgus monkey; format: ADME, organism-based, Macaca fascicularis; conditions: in vivo
[30] = Clearance in cynomolgus monkey; format: ADME, Macaca fascicularis; conditions: in vivo, dose 1 mg/kg
[31] = Protein binding in cynomolgus monkey assessed as unbound fraction; format: ADME, Macaca fascicularis
[32] = Unbound partition coefficient of the compound in cynomolgus monkey incubated for 8 hrs; format: ADME, cell-free, Macaca fascicularis, Brain/Plasma; conditions: brain, read-out: K(p,uu,brain)
[33] = Volume of distribution at steady state in cynomolgus monkey; format: ADME, Macaca fascicularis; conditions: in vivo, read-out: Vdss
[34] = Half life in po dosed cynomolgus monkey; format: ADME, organism-based, Macaca fascicularis; conditions: in vivo
[35] = Oral bioavailability in cynomolgus monkey; format: ADME, organism-based, Macaca fascicularis; conditions: in vivo, dose 10 mg/kg
[36] = Cmax in cynomolgus monkey; format: ADME, Macaca fascicularis; conditions: in vivo

Chain of Muscarinic acetylcholine receptor M3 (P20309 whole entry): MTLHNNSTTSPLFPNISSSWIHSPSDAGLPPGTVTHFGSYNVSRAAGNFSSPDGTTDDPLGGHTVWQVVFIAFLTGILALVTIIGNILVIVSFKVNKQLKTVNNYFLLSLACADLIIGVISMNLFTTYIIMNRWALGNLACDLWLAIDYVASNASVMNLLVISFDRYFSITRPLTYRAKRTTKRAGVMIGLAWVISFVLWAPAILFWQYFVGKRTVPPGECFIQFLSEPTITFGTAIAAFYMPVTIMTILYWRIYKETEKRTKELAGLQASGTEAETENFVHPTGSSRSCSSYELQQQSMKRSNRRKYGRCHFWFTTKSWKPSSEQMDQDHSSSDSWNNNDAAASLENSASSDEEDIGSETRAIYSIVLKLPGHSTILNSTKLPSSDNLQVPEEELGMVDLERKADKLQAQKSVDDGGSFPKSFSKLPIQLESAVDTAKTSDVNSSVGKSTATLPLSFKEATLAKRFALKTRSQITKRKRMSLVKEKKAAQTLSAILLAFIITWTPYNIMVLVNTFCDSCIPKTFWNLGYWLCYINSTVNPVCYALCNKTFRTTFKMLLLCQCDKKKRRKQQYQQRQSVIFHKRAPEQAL

In the case of `O=C(OCC1CN2CCC1CC2)N1CCc2ccccc2[C@@H]1c1ccc(F)cc1` (some centres undefined), the EC50 [1] is reported as 1990 nM.
In the case of `O=C(OC1CN2CCC1CC2)N1CCc2ccccc2[C@@H]1c1ccc(OC(F)(F)F)cc1` (some centres undefined), the EC50 [1] is reported as 2600 nM.
Work on `O=S(=O)(CC1CN2CCC1CC2)N1CCc2ccccc2[C@@H]1c1ccc(F)cc1` (some centres undefined) yielded an EC50 [1] of 1700 nM.
With `CS(=O)(=O)c1ccc([C@H]2c3ccccc3CCN2C(=O)OC2CN3CCC2CC3)cc1` (some centres undefined) the EC50 [1] was > 10000 nM.
For `O=S(=O)(NC1CN2CCC1CC2)N1CCc2ccccc2[C@@H]1c1ccc(F)cc1` (some centres undefined), the EC50 [1] was > 10000 nM.
`O=C(OC1CN2CCC1CC2)N1CCc2ccccc2[C@@H]1c1ccc(F)cc1` (some centres undefined) gave a clearance [2] of 198 mL/min/kg, a bioavailability [3] of 16% and a half-life [4] of 2.1 min. The Kp uu at 8 h [5] was 0.26, the fraction unbound [6] was 0.008 and the half-life [7] was 10 min. For the same molecule, the clearance [8] was 44.2 mL/min/kg, the Vd [9] was 4.91 L/kg and the half-life [10] was 2.1 min. For the same molecule, the Vd [11] was 4.65 L/kg, the IC50 [12] was 17000 nM and the solubility [13] was 1990 µM (≈ 757 µg/mL). The EC50 [1] was 257 nM, the fraction unbound [14] was 0.02 and the half-life [15] was > 240 min. The half-life [16] was 29 min, the bioavailability [17] was 64% and the CLH [18] was 0.0698 mL/min/kg. The half-life [19] was 1.9 min, the Cmax [20] was 37 nM and the fraction unbound [21] was 0.086. The fraction unbound [22] was 0.008, the Papp A→B [23] was 7.59 ×10⁻⁶ cm/s and the half-life [24] was 4.1 min. It also gave a CLH [25] of 0.023 mL/min/kg, a Cmax [26] of 28 nM and a Kp uu at 8 h [27] of 1.08. For the same molecule, the fraction unbound [28] was 0.06.
For `O=C(OC1CN2CCC1CC2)N1CCc2ccccc2[C@@H]1c1cccc(F)c1` (some centres undefined), the EC50 [1] was 3550 nM.
`O=C(OC1CN2CCC1CC2)N1CCc2ccccc2[C@@H]1c1cccc(F)c1F` (some centres undefined) gave an EC50 [1] of 1110 nM.
With `O=C(NC1CN2CCC1CC2)N1CCc2ccccc2[C@@H]1c1ccc(F)cc1` (some centres undefined) the IC50 [12] was 10000 nM, the solubility [13] was 5960 µM (≈ 2260 µg/mL) and the EC50 [1] was 265 nM. For the same molecule, the Papp A→B [23] was 0.95 ×10⁻⁶ cm/s.
In the case of `O=C(OCCC12CCN(CC1)CC2)N1CCc2ccccc2[C@@H]1c1ccc(F)cc1`, the EC50 [1] is reported as > 10000 nM.
`O=C(NC1CN2CCC1CC2)C(=O)N1CCc2ccccc2[C@@H]1c1ccc(F)cc1` (some centres undefined) gave an EC50 [1] of 1610 nM.
With `O=C(COC1CN2CCC1CC2)N1CCc2ccccc2[C@@H]1c1ccc(F)cc1` (some centres undefined) the EC50 [1] was 811 nM.
With `O=C(OC1CN2CCC1CC2)N1CCc2ccccc2[C@@H]1c1ccc(Cl)cc1` (some centres undefined) the IC50 [12] was 1480 nM and the EC50 [1] was 339 nM.
With `O=C(OC1CN2CCC1CC2)N1CCc2ccccc2[C@@H]1c1ccc(OC2CC2)cc1` (some centres undefined) the EC50 [1] was > 10000 nM.
In the case of `CC1(C)C(OC(=O)N2CCc3ccccc3[C@@H]2c2ccc(F)cc2)C2CCN1CC2` (some centres undefined), the EC50 [1] is reported as 574 nM.
`O=C(OC1CN2CCC1CC2)N1CCc2ccccc2[C@@H]1c1ccc(F)c(F)c1` (some centres undefined) gave an IC50 [12] of 10000 nM and an EC50 [1] of 2030 nM.
In the case of `CN(C(=O)N1CCc2ccccc2[C@@H]1c1ccc(F)cc1)C1CN2CCC1CC2` (some centres undefined), the EC50 [1] is reported as 1030 nM.
Molecule `C[C@]1(c2ccc(F)cc2)c2ccccc2CCN1C(=O)OC1CN2CCC1CC2` (some centres undefined) has an EC50 [1] of 3460 nM.
For `Fc1ccc([C@@H]2c3ccccc3CCN2CCC2CN3CCC2CC3)cc1` (some centres undefined), the EC50 [1] was > 10000 nM.
For `O=C(OCC12CCN(CC1)CC2)N1CCc2ccccc2[C@H]1c1ccc(F)cc1`, the clearance [2] was 102 mL/min/kg, the bioavailability [3] was 16% and the half-life [29] was 6.4 min. For the same molecule, the half-life [4] was 2.2 min, the Kp uu at 8 h [5] was 0.4 and the fraction unbound [6] was 0.008. For the same molecule, the half-life [7] was 22 min, the clearance [30] was 20.7 mL/min/kg and the fraction unbound [31] was 0.176. For the same molecule, the Kp uu at 8 h [32] was 0.33, the clearance [8] was 51.8 mL/min/kg and the Vd [9] was 7.23 L/kg. The half-life [10] was 5.2 min, the Vd [33] was 9.6 L/kg and the half-life [34] was 6.8 min. For the same molecule, the Vd [11] was 16.2 L/kg, the solubility [13] was 2670 µM (≈ 1050 µg/mL) and the bioavailability [35] was 42%. It also gave an EC50 [1] of 146 nM, a fraction unbound [14] of 0.048 and a half-life [15] of 198 min. For the same molecule, the half-life [16] was 17 min, the bioavailability [17] was 41% and the CLH [18] was 0.0318 mL/min/kg. For the same molecule, the half-life [19] was 2.2 min, the Cmax [20] was 17 nM and the fraction unbound [21] was 0.096. It also gave a fraction unbound [22] of 0.007, a Papp A→B [23] of 3.01 ×10⁻⁶ cm/s and a Cmax [36] of 32 nM. It also gave a half-life [24] of 2.9 min, a CLH [25] of 0.0397 mL/min/kg and a Cmax [26] of 30 nM. The Kp uu at 8 h [27] was 0.09 and the fraction unbound [28] was 0.086.
In the case of `O=C(OC1CN2CCC1CC2)N1CCc2ccccc2[C@H]1c1ccc(F)cc1` (some centres undefined), the EC50 [1] is reported as > 10000 nM.
`COc1ccc([C@H]2c3ccccc3CCN2C(=O)OC2CN3CCC2CC3)cc1` (some centres undefined) showed an EC50 [1] of 2870 nM.
Molecule `O=C(CC1CN2CCC1CC2)N1CCc2ccccc2[C@@H]1c1ccc(F)cc1` (some centres undefined) has an IC50 [12] of 30000 nM, an EC50 [1] of 222 nM and a Papp A→B [23] of 2.68 ×10⁻⁶ cm/s.
Work on `O=C(OC1CN2CCC1CC2)N1CCc2ccccc2[C@@H]1c1ccc(F)cc1F` (some centres undefined) yielded an IC50 [12] of 9400 nM and an EC50 [1] of 247 nM.
Molecule `O=C(C(O)C1CN2CCC1CC2)N1CCc2ccccc2[C@@H]1c1ccc(F)cc1` (some centres undefined) has an EC50 [1] of 895 nM.
In the case of `O=C(O[C@@H]1CN2CCC1CC2)N1CCc2ccccc2[C@@H]1c1ccccc1`, the IC50 [12] is reported as 733 nM and the EC50 [1] is reported as 1830 nM.
With `O=C(OC1CN2CCC1(F)CC2)N1CCc2ccccc2C1c1ccc(F)cc1` (single isomer, unassigned) the EC50 [1] was 1250 nM.
Work on `O=C(O[C@H]1CN2CCC1CC2)N1CCc2ccccc2[C@@H]1c1ccccc1` [SOLIFENACIN] yielded an IC50 [12] of 24 nM and an EC50 [1] of 1300 nM.
